Literature values in patent US12370168B2 (scPharmaceuticals Inc., priority 2013, dated 2025).

Conditions: as described in the '361 patent; cited from earlier work

For `NC(CO)(CO)CO.NS(=O)(=O)c1cc(C(=O)O)c(NCc2ccco2)cc1Cl` [tris(hydroxymethyl)aminomethane salt of furosemide], the pH is listed as 6-6.5.
